Results as given in US11440907B1 (Merck Patent GmbH, priority 2018, dated 2022).

test system: XBP1(u)-luciferase splicing reporter in HepG2 hepatoma cells; assay: HepG2 XBP1 reporter assay (XBP1(u)-Luc); format: cell-based; settings: Homo sapiens, 6 h, six hours after addition of compound
From the text: HepG2 XBP1 Reporter Assay
HepG2 hepatoma cells were transduced with a retrovirus encoding the cDNA for unspliced (u) XBP1, which contains a non-processed intron, fused to the cDNA for firefly luciferase. Upon induction of ER stress, the non-processed intron of XBP1(u) is spliced out by active IRE1alpha endonuclease. The resulting spliced (s) XBP1 is now in frame with luciferase which causes the production of active luciferase protein, resulting in bioluminescence
HepG2 XBP1(u)-Luc cells were plated […] Cultured cells with a stably transfected reporter construct were plated at approximately 30,000 cells per well into 96 well multi-well plates for twenty four hours. The testing compounds were then added to the wells in 3-fold serial dilutions using a twenty seven micromolar top concentration. A series of control wells for each cell type received only compound solvent. Six hours after the addition of compound, reporter activity for luciferase was assayed, by addition of the SteadyGlo luminescence reagent (Promega). The reporter luminescence activity was measured using Pherastar plate reader (BMG Labtech). Readings was normalized to DMSO only treated cells, and normalized activities were then used in the IC50 calculations. The HepG2 XBP1 reporter assay data are summarized in Tables 3-5: A<0.6 μM; 0.6 μM≤B<2.0 μM; 2.0 μM≤C<5.0 μM; D≥5.0 μM.

| Compound | IC50 |
| --- | --- |
| Cc1cc(N2CCCOC[C@@H]2c2cc3c(cc2Cl)OCC2(CC2)CO3)nc(N)n1 [D-16] | 0.6 to 2 µM |
| COc1cc(C2COCCCN2c2cc(C)nc(N)n2)c(Cl)cc1OCC(=O)NC(C)(C)C [D-32] | 0.6 to 2 µM |
| CCOc1cc(C2COCCCN2c2cc(C)nc(N)n2)c(Cl)cc1OCC(=O)OC [D-44] | 0.6 to 2 µM |
| CCOc1cc(C2COCCCN2c2cc(C)nc(N)n2)c(Cl)cc1OCC(=O)NC(C)(C)C [D-47] | 0.6 to 2 µM |
| C=CCOc1cc(Cl)c(C2COCCCN2c2cc(C)nc(N)n2)cc1OCC [D-48] | 0.6 to 2 µM |
| COC(=O)Cc1cc(C2COCCCN2c2cc(C)nc(N)n2)c(Cl)cc1C#N [D-53] | 2 to 5 µM |
| Cc1cc(N2CCCOC[C@@H]2c2ccc(NC(=O)C3(F)CCOC3)cc2Cl)nc(N)n1 (stereo partly drawn) [D-62] | 2 to 5 µM |
| Cc1cc(N2CCCOC[C@@H]2c2ccc(C3CCNCC3)cc2Cl)nc(N)n1 [D-66] | 2 to 5 µM |
| Cc1cc(N2CCCOCC2c2ncc(CS(C)(=O)=O)cc2OC(F)F)nc(N)n1 [D-67] | 0.6 to 2 µM |
| Cc1cc(N2CCCOC[C@@H]2c2ccc(C3CCN(C4COC4)CC3)cc2Cl)nc(N)n1 [D-69] | 0.6 to 2 µM |
| Cc1cc(N2CCCOCC2c2ccc(C3CCN(C4COC4)CC3)cc2Cl)nc(N)n1 [D-70] | 2 to 5 µM |
| CCOc1cc(C2COCCCN2c2cc(C)nc(N)n2)c(Cl)cc1OCC(N)=O [D-72] | 0.6 to 2 µM |
| Cc1cc(N2CCCOCC2c2cc(CN)c(Cl)cc2C)nc(N)n1 [D-73] | 0.6 to 2 µM |
| Cc1cc(N2CCCOCC2c2cc(O)c(OC(F)(F)F)cc2Cl)nc(N)n1 [D-74] | < 0.6 µM |
| Cc1cc(N2CCCOC[C@@H]2c2cc(CN)c(C)cc2Cl)nc(N)n1 [D-75] | < 0.6 µM |
| Cc1cc(N2CCCOC[C@H]2c2cnc(CS(C)(=O)=O)cc2Cl)nc(N)n1 [D-76] | < 0.6 µM |
| COC(=O)c1cc(C2COCCCN2c2cc(C)nc(N)n2)c(Cl)cc1C#N [D-77] | 0.6 to 2 µM |
| Cc1cc(N2CCCOCC2c2cc(O)c(S(C)(=O)=O)cc2Cl)nc(N)n1 [D-79] | 0.6 to 2 µM |
| Cc1cc(N2CCCOC[C@@H]2c2ccc(N3CCN(C(=O)OC(C)(C)C)CC3)cc2Cl)nc(N)n1 [D-82] | 0.6 to 2 µM |
| Cc1cc(N2CCCOC[C@@H]2c2ccc(NCC3CCOC3)cc2Cl)nc(N)n1 (stereo partly drawn) [D-83] | < 0.6 µM |
| Cc1cc(N2CCCOC[C@@H]2c2ccc(N3C[C@@H](C)O[C@@H](C)C3)cc2Cl)nc(N)n1 [D-84] | 0.6 to 2 µM |
| Cc1cc(N2CCCOCC2c2cnc(CS(C)(=O)=O)cc2OC(F)F)nc(N)n1 [D-85] | 0.6 to 2 µM |
| CCc1cc(N2CCCOCC2c2cc(O)c(S(C)(=O)=O)cc2Cl)nc(N)n1 [D-87] | ≥ 5 µM |
| Cc1cc(N2CCCOC[C@H]2c2ccc([C@@H]3CCCN3)cc2Cl)nc(N)n1 [D-88] | 2 to 5 µM |
| Cc1cc(N2CCCOC[C@H]2c2ccc([C@H]3CCCN3)cc2Cl)nc(N)n1 [D-89] | 2 to 5 µM |
| Cc1cc(N2CCCOC[C@@H]2c2ccc([C@H]3CCCN3)cc2Cl)nc(N)n1 [D-90] | < 0.6 µM |

| Compound | IC50 |
| --- | --- |
| Cc1cc(N2CCCOC[C@@H]2c2ccc([C@@H]3CCCN3)cc2Cl)nc(N)n1 [D-91] | < 0.6 µM |
| Cc1cc(N2CCCOCC2c2ccc(NC(=O)CC(C)C)cc2Cl)nc(N)n1 [D-92] | 0.6 to 2 µM |
| Cc1cc(N2CCCOC[C@@H]2c2ccc(CS(C)(=O)=O)nc2OC(F)F)nc(N)n1 [D-93] | < 0.6 µM |
| Cc1cc(N2CCCOCC2c2ccc(NC(=O)CC3CC3)cc2Cl)nc(N)n1 [D-94] | 2 to 5 µM |
| CCCC(=O)Nc1ccc(C2COCCCN2c2cc(C)nc(N)n2)c(Cl)c1 [D-95] | 0.6 to 2 µM |
| Cc1cc(N2CCCOCC2c2ccc(NC(=O)CC(C)(C)C)cc2Cl)nc(N)n1 [D-96] | 0.6 to 2 µM |
| CCC(=O)Nc1cc(Cl)c(C2COCCCN2c2cc(C)nc(N)n2)cc1O [D-97] | < 0.6 µM |
| CCc1cc(N2CCCOCC2c2cc(O)c(CS(C)(=O)=O)cc2Cl)nc(N)n1 [D-98] | < 0.6 µM |
| Cc1cc(N2CCCOC[C@@H]2c2cc(CN)c(Cl)cc2C)nc(N)n1 [D-99] | < 0.6 µM |
| Cc1cc(N2CCCOCC2c2cc(O)c(NC(=O)CC(C)(C)O)cc2Cl)nc(N)n1 [D-100] | 0.6 to 2 µM |
| CCOc1cc([C@H]2COCCCN2c2cc(C)nc(N)n2)c(Cl)cc1OCC(N)=O [D-101] | < 0.6 µM |
| Cc1cc(N2CCCOCC2c2ccc(S(N)(=O)=O)cc2)nc(N)n1 [D-102] | ≥ 5 µM |
| Cc1cc(N2CCCOCC2c2sc(Cl)nc2Cl)nc(N)n1 [D-103] | 2 to 5 µM |
| C#CCOc1cc(Cl)c([C@H]2COCCCN2c2cc(C)nc(N)n2)cc1OC [D-105] | < 0.6 µM |
| CCc1ccccc1[C@H]1COCCCN1c1cc(C)nc(N)n1 [D-106] | < 0.6 µM |
| Cc1cc(N2CCCOCC2c2ccc(Cl)cc2C#N)nc(N)n1 [D-107] | 0.6 to 2 µM |
| Cc1cc(N2CCCOCC2c2ccc3[nH]ncc3c2)nc(N)n1 [D-108] | 2 to 5 µM |
| CC(=O)Nc1cc(Cl)c(C2COCCCN2c2cc(C)nc(N)n2)cc1O [D-109] | < 0.6 µM |
| Cc1cc(N2CCCOCC2c2cc(O)c(NC(=O)C3CC3)cc2Cl)nc(N)n1 [D-112] | < 0.6 µM |
| C#Cc1ccccc1C1COCCCN1c1cc(C)nc(N)n1 [D-113] | 0.6 to 2 µM |
| Cc1cc(N2CCCOC[C@H]2c2cc3c(cc2Cl)NC[C@@](C)(C(=O)O)O3)nc(N)n1 [D-114] | ≥ 5 µM |
| Cc1cc(N2CCCOC[C@@H]2c2cc(O)c(C(N)=O)cc2Cl)nc(N)n1 [D-115] | 0.6 to 2 µM |
| CNC(=O)c1cc(Cl)c(C2COCCCN2c2cc(C)nc(N)n2)cc1O [D-118] | 0.6 to 2 µM |
| Cc1cc(N2CCCOC[C@@H]2c2cc3c(cc2Cl)NC[C@@](C)(C(N)=O)O3)nc(N)n1 [D-120] | < 0.6 µM |
| Cc1cc(N2CCCOC[C@H]2c2cc(O)c(C(=O)NC(C)C)cc2Cl)nc(N)n1 [D-121] | ≥ 5 µM |

same assay, conditions: Homo sapiens, 6 hours after compound addition, Table 4

| Compound | IC50 |
| --- | --- |
| Cc1cc(N2CCCOCC2c2ccc(OCS(C)(=O)=O)cc2Cl)nc(N)n1 (stereo not drawn) [C-120, 4-[3-(2-Chloro-4-methanesulfonylmethoxy-phenyl)-[1,4]oxazepan-4-yl]-6-methyl-pyrimidin-2-ylamine] | < 0.6 µM |
| CSCOc1ccc([C@H]2COCCCN2c2cc(C)nc(N)n2)c(Cl)c1 [C-121, 4-[(S)-3-(2-Chloro-4-methylsulfanylmethoxy-phenyl)-[1,4]oxazepan-4-yl]-6-methyl-pyrimidin-2-ylamine] | ≥ 5 µM |
| CSCOc1ccc([C@@H]2COCCCN2c2cc(C)nc(N)n2)c(Cl)c1 [C-122, 4-[(R)-3-(2-Chloro-4-methylsulfanylmethoxy-phenyl)-[1,4]oxazepan-4-yl]-6-methyl-pyrimidin-2-ylamine] | < 0.6 µM |
| CC1=C(F)CN(c2ccc([C@H]3COCCCN3c3cc(C)nc(N)n3)c(Cl)c2)CC1 [C-123] | 0.6 to 2 µM |
| Cc1cc(N2CC(O)COC[C@@H]2c2ccc(N3CCC(C)(O)CC3)cc2Cl)nc(N)n1 (stereo partly drawn) [C-124] | < 0.6 µM |
| Cc1cc(N2CCCOC[C@@H]2c2cc(F)c(N3CCC(C)(O)CC3)cc2Cl)nc(N)n1 [C-125] | 0.6 to 2 µM |
| Cc1cc(N2CCCOC[C@@H]2c2ccc(N3CCC(C)(O)CC3)c(F)c2Cl)nc(N)n1 [C-126] | 0.6 to 2 µM |
| Cc1cc(N2CCCOC=C2c2c(O)cc(N3CCC(C)(O)CC3)cc2Cl)nc(N)n1 [C-127] | 2 to 5 µM |
| Cc1cc(N2CCCOCC2c2cc(C)c(O)cc2Cl)nc(N)n1 (stereo not drawn) [C-128] | 0.6 to 2 µM |
| Cc1cc(N2CCCOCC2c2cc3c(cc2Cl)CCCN3C)nc(N)n1 (stereo not drawn) [C-129] | ≥ 5 µM |
| Cc1cc(N2CCCOCC2c2cc(OC(F)(F)F)c(N)cc2Cl)nc(N)n1 (stereo not drawn) [C-130] | 0.6 to 2 µM |
| Cc1cc(N2CCCOC[C@H]2c2cc3c(cc2Cl)NC(=O)CO3)nc(N)n1 [C-131] | 0.6 to 2 µM |
| Cc1cc(N2CCCOC[C@@H]2c2cc3c(cc2Cl)CCN3)nc(N)n1 [C-134] | < 0.6 µM |
| Cc1cc(N2CC3(CC3)COC[C@@H]2c2ccc(CS(C)(=O)=O)cc2Cl)nc(N)n1 [C-136] | ≥ 5 µM |
| Cc1cc(N2C[C@H](C)COC[C@H]2c2ccc(CS(C)(=O)=O)cc2Cl)nc(N)n1 [C-139] | ≥ 5 µM |
| Cc1cc(N2CCCOCC2c2cc(N)c(OC(F)(F)F)cc2Cl)nc(N)n1 (stereo not drawn) [C-141] | < 0.6 µM |
| CC(=O)Nc1cc(Cl)c(N2CCCOCC2c2cc(C)nc(N)n2)cc1C (stereo not drawn) [C-143] | 0.6 to 2 µM |
| COc1cc(Cl)c([C@H]2COCCCN2c2cc(C)nc(N)n2)cc1OC(C)C [C-144] | 0.6 to 2 µM |
| CCNc1cc(Cl)c([C@H]2COCCCN2c2cc(C)nc(N)n2)cc1C [C-146] | < 0.6 µM |
| CCOC(=O)[C@H](C)Oc1cc(Cl)c([C@@H]2COCCCN2c2cc(C)nc(N)n2)cc1OC [C-149] | 2 to 5 µM |
| CCOC(=O)[C@H](C)Oc1cc(Cl)c([C@H]2COCCCN2c2cc(C)nc(N)n2)cc1OC [C-150] | 0.6 to 2 µM |
